Entries after “also recorded” stand apart in the source; their conditions may differ.
Experiments:
[1] = system: A. niger AB1.13 CAD 4.1 (CBS 141653) strain; experiment: Itaconic acid toxicity: shakeflask growth in M12+Cu with added IA, biomass dry weight; format: cell-based, Aspergillus niger
Description: FIG. 4: Growth of AB1.13 CAD 4.1 (CBS 141653) strain in M12+Cu supplemented with several concentrations of itaconic acid. Medium devoid of C-source is used as negative control. An extracellular concentration of 10 g/l IA in the production medium results in an 75% decrease in biomass development.
Shakeflasks (500 mL) were prepared with 100 mL M12+Cu supplemented with the following IA concentrations: 0, 10, 20, 40, 75 g/l and pH was adjusted to 2.3 by addition of KOH/H2SO4. The flasks were inoculated with 1 mL of overnight grown pre-culture. After 7 days the mycelium was harvested and the biomass was determined by measuring the dry weight. The effect of IA on the growth of A. niger was tested using the AB1.13 CAD 4.1 (CBS 141653) strain. As shown in FIG. 4 the growth of A. niger is already hampered at concentrations of 10 g/l IA in the extracellular medium.

[2] = system: trans-aconitate 2-methyltransferase (An16g06510); experiment: Gene expression analysis (RNA-Seq) in A. niger IA producing strains; format: cell-based, Aspergillus niger; settings: IA producing A. niger strains in controlled fermentation
Description: Similarly, genome wide gene expression analysis of Aspergillus niger strains expressing a functional itaconic acid pathway grown in fermenters was carried out to identify genes co-regulated by the expression of the itaconic acid gene cluster. The following strains were investigated: AB1.13 WT, AB1.13 CAD 4.1 (CBS141653), AB1.13 #49B (CBS141657), CitB #99 (CBS141659), and CitB #113.
Controlled batch-cultivations were performed on 5 L scale benchtop New Brunswick Scientific fermenters (BioFlo 3000) at 33° C. Starting pH was 3.5 after inoculation and medium was allowed to naturally acidify till pH 2.3 and then kept at pH 2.3 by addition of 4M KOH. […]
BaseClear in Leiden, NL performed digital gene expression profiling experiments based on RNA-Seq with an Illumina HiSeq 2000 System. Approximately 8-32 M unfiltered paired-end (PE) reads (99 bp/read on ˜320 bp cDNA inserts) were obtained. […] The reads were then further filtered, such that all quality phred scores after filtering are at least 22, with a read-length of at least 40 bases. […] After filtering the #PE-reads/samples were between 7.6M and 19.8M for all the samples respectively.
Reads were aligned to the 20 contigs in a FastA file of the Aspergillus niger reference genome (from www.ebi.ac.uk). […] The reads were aligned to the reference genome using software based on a Burrows-Wheeler Transform (BWT) algorithm. […]

[3] = system: Itaconyl CoA transferase ATEG_06299; settings: 40 g/l IA addition to culture medium; cited from earlier work
[4] = system: Itaconyl CoA hydratase ATEG_03709; settings: 40 g/l IA addition to culture medium; cited from earlier work
[5] = system: Citramalyl-CoA lyase ATEG_03186; settings: 40 g/l IA addition to culture medium; cited from earlier work
[6] = system: Trans-aconitate 3-methyltransferase (tmt-1) ATEG_06208; settings: 40 g/l IA addition to culture medium; cited from earlier work
[7] = system: Trans-aconitate 2-methyltransferase ATEG_04223; settings: 40 g/l IA addition to culture medium; cited from earlier work

C=C(CC(=O)O)C(=O)O [IA, itaconic acid]
growth of A. niger ([1]; 10 g/l IA in the extracellular medium, M12+Cu, 7 days): hampered | growth at higher IA concentrations ([1]; 20 g/l IA and higher (20, 40 and 75 g/l), M12+Cu, 7 days, 33° C.): detrimental effects of IA on growth become more evident; also recorded: further deteriorated growth | decrease in biomass development ([1]; extracellular 10 g/l IA in production medium M12+Cu, pH 2.3, 7 days, 33° C.): 75% | gene expression, effect of itaconic acid [2]: induced | Induced [3]: induced | induced expression level (RKPM) [3]: 130 RKPM | x-fold [3]: 8.2 x-fold | Induced [4]: induced | induced expression level (RKPM) [4]: 320 RKPM | x-fold [4]: 2.3 x-fold | Induced [5]: induced | induced expression level (RKPM) [5]: 150 RKPM | x-fold [5]: 5.4 x-fold | Induced [6]: not induced | induced expression level (RKPM) [6]: <(4) RKPM | Induced [7]: not induced | induced expression level (RKPM) [7]: <(25) RKPM

From patent US11066681B2, “Production of itaconic acid” (LESAFFRE ET COMPAGNIE, priority 2016, dated 2021)
